From patent US20160331754A1, “THERAPIES FOR TREATING CANCERS” (GILEAD SCIENCES, INC., priority 2014, published 2016)
Several values for one entry are separate records, joined by “and”; a condition that tells them apart may be missing. Identical values can stand only once.

Assays:
pS6RP Ser235/236 = experiment: Flow cytometry, basal S6RP phosphorylation in CD34+ progenitor cells from MF patients; assay type: cell-based, human; conditions: data not shown
Procedure: PBMCs were isolated from whole blood of myelofibrosis (MF) patients who had not received treatments (i.e. naïve patients) or received ruxolitinib (i.e. rux-treated patients). The cells were treated with 0.02, 0.2, or 2.0 μM of Compound B or vehicle (0.1% DMSO in 0.1% FBS/RPMI) for 2 hours at 37° C. The cells were then fixed, permeabilized, and stained for FACS analysis. Antibodies specific to p-AKT Ser473 and pS6RP Ser235/236 were used to detect AKT phosphorylation (p-AKT) and S6RP phosphorylation (p-S6RP) in CD34^+/CD3^−/CD14^−/CD19/CD66^− (BD Biosciences) gated cells using flow cytometry. The percentage of basal (i.e. untreated with TPO) AKT and S6RP phosphorylation were normalized to vehicle control. A two-tailed paired t-test (GraphPad Prism) was used to calculate p-values. Values of p<0.05 were considered significant.
Similar studies were conducted with PI3K inhibitors Compounds C and D. PBMC from MF patients had received ruxolitinib (rux) and MF patient had received Compound A. The cells were treated with Compounds C or D at 0, 20.0, 200.0, 2000.0 nM for 2 hours at 37° C. Cells were treated with TPO for 10 minutes. The percentage of basal p-AKT and p-S6RP levels were normalized to vehicle control and those of TPO-treated were normalized to TPO-treated vehicle control. The PI3Kδ inhibitors Compound C is referred by the chemical names of (S)-2-(1-((9H-purin-6-yl)amino)ethyl)-6-fluoro-3-phenylquinazolin-4(3H)-one.

WIL2-S target cells = experiment: Antibody-dependent cellular phagocytosis (ADCP) with polarized macrophages; assay type: cell-based; conditions: Homo sapiens, Macrophage, 256 nM
Procedure: Next, antibody-dependent cellular phagocytosis (ADCP) was characterized. The CD14^+ negatively selected monocytes (Astarte Biologics, Bothell, Wash.) were cultured in Gibco AIM V Medium CTS (Life Technologies, Grand Island, N.Y.) with macrophage colony-stimulating factor (PeproTech, Rocky Hill, N.J.) at 60 ng/mL. At Day 6 or 7, monocyte-derived macrophages were washed and plated with polarizing cytokines. For differentiation to M1 macrophages, cells were plated with interferon-γ 100 ng/mL (R&D Systems, Minneapolis, Minn.) and lipopolysaccharides from E. coli 055:B5 100 ng/mL (Sigma-Aldrich, St Louis, Mo.) for 24 hours. For differentiation to M2c macrophages, cells were plated in interleukin-10 10 ng/mL (R&D Systems) for 48 hours. Compound B titration was added to the plated macrophages and incubated at 37° C. for about 1 hour. […] Cells were then stained with pooled FITC anti-CD14 (Becton, Dickinson and Company, Franklin Lakes, N.J.) and FITC anti-CD11b (eBioscience, San Diego, Calif.), harvested from 96-well plates with Accutase (Merck Millipore, Darmstadt, Germany) and vigorous pipetting, and analyzed on an LSR II flow cytometer (Becton, Dickinson and Company). Double-positive cells (FITC+CellTracker Red) represented phagocytized target cells and the levels of phagocytosis were calculated as % double-positive cells/% double positive cells+% target cells alone×100. […]

autologous B cells = experiment: Whole blood (WB) autologous B-cell depletion assay; assay type: cell-based
Procedure: Further, whole blood (WB) autologous B-cell depletion and cell-death induction assays were conducted as described in Mossner et al., Blood 115:4393-402, 2010. For cell death assay: Ri-1 DLBCL cells were seeded at 15,000 cells/well in 96-well plates. Cells were preincubated with Compound B or DMSO for 1 hour before the addition of antibody. Plates were incubated at 37° C. in a humidified CO2 chamber for 3 days. Cells were washed once with PBS and treated with Accutase for 15 minutes before being stained with Guava Nexin® reagent and analyzed on the Guava EasyCyte flow cytometer (Merck Millipore).
The percentage of deplete autologous B cells in a whole blood assay may represent the antibody potency.

p-AKT Ser473 = experiment: Western blot, TPO-activated AKT phosphorylation in UT-7/TPO cells; assay type: cell-based; conditions: then TPO
Procedure: In addition, Compound B was examined for the effects on the PI3K signaling pathway by determining the levels of AKT and S6 phosphorylation with or without TPO activation. Two cell lines, BaF3/MPL and UT-7/TPO sensitive or responsive to TPO activation were used. The cells were starved (i.e. growing on medium having less FBS) in […] FBS/RPMI for two hours before treated with 0.1, 1.0, or 2.0 μM of Compound B or vehicle (0.1% DMSO in RPMI) for 2 hours at 37° C. To examine the TPO-activated phosphorylation, the cells were then treated or activated with 50 ng/mL of human recombinant TPO (Peprotech) for 10 minutes at 37° C. The TPO activation or treatment may reflect the conditions in diseased cells as the PI3K pathway is activated by TPO in myelofibrosis. After treating with compound and/or TPO, the cells were collected, lysed by lysis buffer (Cell Signaling), separated by SDS-PAGE, and analyzed by the Western blot using antibodies specific to p-AKT Ser473 or pS6 Ser235/236 (Cell Signaling). The phosphorylation levels in treated cells were calculated and compared to those of untreated cells (i.e. vehicle as negative control).

CC[C@H](Nc1ncnc2[nH]cnc12)c1nc2cccc(F)c2c(=O)n1-c1ccccc1 [Compound B, (S)-2-(1-((9H-purin-6-yl)amino)propyl)-5-fluoro-3-phenylquinazolin-4(3H)-one]
basal p-S6RP level vs untreated cells (pS6RP Ser235/236): reduced levels
inhibition at 0.256 µM (WIL2-S target cells): < 30%
Percentage of B-cell depletion WB (autologous B cells; Compound B alone 100 nM): 5% and −1% and −3%
Percentage of B-cell depletion WB (autologous B cells; Compound B alone 760 nM): −1% and −4%
Percentage of B-cell depletion WB (autologous B cells; Compound B alone 4200 nM): 0% and 1% and 5%
reduced p-AKT levels vs vehicle (p-AKT Ser473; 0.1 μM 2 h): 11%
reduced p-AKT levels vs vehicle (p-AKT Ser473; 1.0 μM 2 h): 44%
reduced p-AKT levels vs vehicle (p-AKT Ser473; 2.0 μM 2 h): 55%
